The values below come from patent US12240870B2, “Sequencing method for CAR T cell therapy” (Purdue Research Foundation, priority 2018, dated 2025).

Data set [1] in a line: EC17 dose finding and CRS assessment in tumor-free mice. It is filed as in vivo, NSG mice. The text has this:
Panel A: Schematic diagram to show dose scheduling of CAR-T cells (˜10 million “clinical facsimile”) plus EC17 dosed 3 different ways in NSG mice without or with pre-established MDA-MB-231 xenografts. Tumor-free mice received EC17 SIW 500 nmol/kg (2 doses on days 2 and 10). Tumor-bearing mice received EC17 as follows: EC17 SIW 500 nmol/kg (5 doses on days 2, 10, 17, 24, and 31), EC17 M/Th/M_Escalation-1 (repeats of 5/50/500 nmol/kg on Monday/Thursday/Monday followed by 1-week break, i,e. on days 2, 6, 10, 17, 20, 24, and 31), or EC17 M/Th/M_Escalation-2 (repeats of 5/100/1000 nmol/kg on Monday/Thursday/Monday followed by 1-week break, i.e. days 2, 6, 10, 17, 20, 24, and 31). Panel B: Systemic levels of human IFNγ on a log 2 scale detected in mouse plasma on days 11 and 12 after CAR-T cell injection in tumor-bearing versus tumor-free mice (i.e., ˜20 and 42 hours after the previous EC17 dose in all treated cohorts). Panel C: Circulating CAR-T cells in mouse blood identified as human CD3ε+ EGFRt+ events by flow cytometry and enumerated per 100 μL of whole blood. Panel D: Measurements of change in body weight and tumor volume in tumor-bearing mice that received CAR-T cells only or CAR-T cells plus EC17 dosed 3 different ways (dashed lines indicated each EC17 dose). n=5 mice per group. All data represent mean±s.e.m. * p<0.05 by one-way ANOVA test. […]

A further data set has as its system THP1-FRβ xenografts. Description: THP1-FRβ AML intravenous xenograft, E2 CAR-T cells plus EC17. The format is in vivo, NSG mice.

Entries after “also recorded” stand apart in the source; their conditions may differ.

As for `Nc1nc2ncc(CNc3ccc(C(=O)N[C@@H](CCC(=O)NCCNC(=S)Nc4ccc(-c5c6ccc(=O)cc-6oc6cc(O)ccc56)c(C(=O)O)c4)C(=O)O)cc3)nc2c(=O)[nH]1` [EC17, FA-(γ)-ethylenediamine-FITC], the body weight loss entry in data set [1] (tumor-free mice, two weekly doses of EC17 at 500 nmol/kg) was “no CRS symptoms (grade 0 out of a 0-5 scale) or body weight loss was observed”; in the data set on THP1-FRβ xenografts (~6 million E2 CAR-T + EC17 M/Th/M dose escalation, 6-day break (Cohort 5)), “little body weight loss during the first two cycles; also recorded: very mild body weight loss”. Further, the “human IFNγ in mouse plasma” value in data set [1] (tumor-free, CAR-T cells plus EC17, days 11 and 12) is on record as “low levels of IFNγ were detected”. The non-liver macrometastases result in the data set with THP1-FRβ xenografts (EC17 M/Th/M dose escalation at a slow pace per cycle) is “failed to control the non-liver macrometastases”.
